{"source": "patent US11690824B2", "about": "“Antibacterial compounds” (THE GENERAL HOSPITAL CORPORATION, priority 2018, dated 2023)", "key": {"[1]": {"system": "S. aureus and Enterococcus faecium clinical strains", "experiment": "MIC against a panel of clinical strains", "assay_type": "cell-based", "conditions": "panel incl. multidrug-resistant MW2 and VRS1; read-out: minimal inhibitory concentration (MIC)", "source_text": "(§1) Bacterial strains, growth conditions, and persister isolation. Methicillin-resistant S. aureus strains, MW2 BAA-1707, ATCC 33591, and JE2, methicillin-susceptible S. aureus strains, NCTC 8325, Newman, and ATCC 29213, vancomycin-resistant S. aureus strain, VRS1, Enterococcus faecium E007, vancomycin-resistant E. faecium strains, C68,^7 WB312, and WC196, Klebsiella pneumoniae WGLW2 (BEI Resources, Manassas, Va., USA), Acinetobacter baumannii ATCC 17978, Pseudomonas aeruginosa PA14, and Enterobacter aerogenes ATCC 13048 were used to test antimicrobial activity (Table 1). S. aureus strains were grown in tryptic soy broth (TSB) (BD, Franklin Lakes, N.J., USA), and E. faecium was grown in brain-heart infusion (BHI) broth (BD, Franklin Lakes, N.J., USA) at 37° C. K. pneumoniae, A. baumannii, P. aeruginosa, and E. aerogenes were grown in Luria Bertani (LB) broth (BD, Franklin Lakes, N.J., USA) at 37° C.\n(§2) Minimal inhibitory concentration (MIC) assay. The MICS of antibiotics were determined by the standard micro-dilution method recommended by the Clinical and Laboratory Standards Institute. MIC assays were conducted in biological triplicate."}, "[2]": {"system": "A. baumannii ATCC 17978", "experiment": "MIC assay", "assay_type": "cell-based, Acinetobacter baumannii", "conditions": "Acinetobacter baumannii, ATCC17978; A. baumannii ATCC 17978; read-out: Minimum inhibitory concentration", "source_text": "as §1, §2"}, "[3]": {"system": "exponential-phase MRSA MW2", "experiment": "Killing kinetics assay", "assay_type": "cell-based, S. aureus", "conditions": "16 μg/ml (4× MIC), ~10^7 CFU/mL", "protocol": "Killing kinetics assay. An MRSA MW2 overnight culture was diluted 1:10,000 in 25 mL TSB (˜10^5 CFU/mL) in a 250 mL flask and incubated at 37° C. with shaking at 200 rpm for 4.5 h until it reached exponential-phase (˜2×10^7 CFU/mL). 1 mL of the exponential phase cell culture was mixed with 1 mL of pre-warmed TSB containing twice the desired concentrations of antibiotics in a 96-well assay block (Corning Costar 3960). The assay block was incubated at 37° C. with shaking at 200 rpm. At every hour, 400 μl aliquots were taken, washed once with phosphate buffered saline (PBS), serially diluted and spot-plated onto tryptic soy agar (TSA, BD) plates. After incubation at 37° C. for overnight, colonies were counted to enumerate the number of cells. These experiments were conducted in biological triplicate."}, "[4]": {"system": "GUVs DOPC/DOPG (7:3)", "experiment": "Giant unilamellar vesicles (GUVs), observation of compound effects", "conditions": "4 μg/ml (1× MIC)", "protocol": "Preparation of giant unilamellar vesicles (GUVs) and observation of compound effects on GUVs. GUVs were prepared by the electroformation method described previously. Dioleoyl-glycero-phosphocholine (DOPC), Dioleoyl-glycero-phosphoglycerol (DOPG) and Dioleoyl-glycero-phosphoethanolamine-N-lissamine rhodamine B sulfonyl (18:1 Liss Rhod PE) were purchased from Avanti Polar Lipids (Alabaster, Ala., USA). 4 mM of a lipid mixture consisting of DOPC/DOPG/18:1 Liss Rhod PE (7:3:0.005) was dissolved in chloroform. Indium tin oxide (ITO)-coated slides (50×75×1.1 mm, Delta Technologies, Loveland, Colo., USA) were coated with 40 μL of the lipid mixture and dried in a vacuum chamber for 2 h to remove chloroform. An electroformation chamber was made by placing a 2 mm thick Teflon spacer between the two lipid-coated ITO slides. After adding 2 mL of 100 mM sucrose into the electrofomation chamber, the chamber was sealed with binder clips, and then connected to an AC field function generator. The swelling of the lipid bilayers was facilitated by applying an electric AC-field (10 Hz). […] GUVs were detached from surfaces by reducing the AC-field from 10 Hz to 5 Hz for 20 min. The GUV suspension was diluted (1:30) in a 100 mM glucose solution. 49 μL of the diluted GUV suspension (˜100 vesicles) was added to a black, clear-bottom 384-well plate (Corning no. 3712). […]"}, "[5]": {"system": "P. aeruginosa PA14", "experiment": "MIC assay", "assay_type": "cell-based, Pseudomonas aeruginosa", "conditions": "Pseudomonas aeruginosa; P. aeruginosa PA14; read-out: Minimum inhibitory concentration", "source_text": "as §1, §2"}, "[6]": {"system": "E. aerogenes ATCC 13048", "experiment": "MIC assay", "assay_type": "cell-based, Enterobacter aerogenes", "conditions": "Klebsiella aerogenes, ATCC13048; E. aerogenes ATCC 13048; read-out: Minimum inhibitory concentration", "source_text": "as §1, §2"}}, "data": [{"smiles": "O=C(O)c1c(Sc2ccccc2)c2cc(Cl)ccc2n1Cc1ccc(Cl)cc1", "note": "[nTZDpa]", "values": [{"measurement": "MIC", "setting": "[1]", "result": "~4", "unit": "µg/mL"}, {"measurement": "MIC", "setting": "[2]", "result": "> 64", "unit": "µg/mL"}, {"measurement": "time to complete eradication of exponential-phase MRSA MW2", "setting": "[3]", "result": "≤ 2", "unit": "h"}, {"measurement": "time to formation of lipid aggregates on the surface of GUVs", "setting": "[4]", "result": 10, "unit": "s"}, {"measurement": "time to rupture of GUVs", "setting": "[4]", "result": 60, "unit": "s"}, {"measurement": "MIC", "setting": "[5]", "result": "> 64", "unit": "µg/mL"}, {"measurement": "MIC", "setting": "[6]", "result": "> 64", "unit": "µg/mL"}]}]}
